The values below come from article PMC4853478 (Nature Communications, 2016).

One test deals with PRC2. Further details: method as in PMID 24304166. The conditions noted are these: activated versus basal PRC2; cited from earlier work.
Test [1] deals with T1, HsPRC2_4 (Homo sapiens, UniProt Q15910).
T1 construct: intact HsPRC2_4 (full-length EZH2 (EZH2_FL) and SUZ12 co-migrate on SDS-PAGE); made in house; host or cells: Sf9 insect cells (baculovirus co-infection)
The test can be described thus: Inhibition of basal and activated states of HsPRC2_4. The note with it: for Ki: SAM above Km, mean of two independent experiments. It counts as biochemical.

Another test concerns the target T2, HsPRC2_4 (Y641N/Y661D) (Homo sapiens, UniProt Q15910, Y641N/Y661D).
T2 construct: intact HsPRC2_4 (full-length EZH2 (EZH2_FL) and SUZ12 co-migrate on SDS-PAGE); made in house; host or cells: Sf9 insect cells (baculovirus co-infection)
The test can be described thus: Radioactive filter-binding histone methyltransferase assay, HsPRC2_4 (Y641N/Y661D), oligonucleosome substrate. It counts as biochemical. An excerpt: (§1) (Prism, Graphpad Software Inc.).

Another test deals with T3, HsPRC2_4 (Y111L) (Homo sapiens, UniProt Q15910, Y111L).
T3 construct: intact HsPRC2_4 (full-length EZH2 (EZH2_FL) and SUZ12 co-migrate on SDS-PAGE); made in house; host or cells: Sf9 insect cells (baculovirus co-infection)
The test can be described thus: Radioactive filter-binding histone methyltransferase assay, HsPRC2_4 (Y111L), oligonucleosome substrate. It counts as biochemical.
Description: as §1

In the next test the target is T4, HsPRC2_4 (Y641N) (Homo sapiens, UniProt Q15910, Y641N).
T4 construct: intact HsPRC2_4 (full-length EZH2 (EZH2_FL) and SUZ12 co-migrate on SDS-PAGE); made in house; host or cells: Sf9 insect cells (baculovirus co-infection)
The test can be described thus: Radioactive filter-binding histone methyltransferase assay, HsPRC2_4 (Y641N), oligonucleosome substrate. It counts as biochemical.
Description: as §1

The next test deals with Hs/AcPRC2_X (Anolis carolinensis, UniProt G1KPH4, DEL368-454, form not given). The conditions noted are these: rH3 substrate; n=2, mean±s.d.
Test [2] concerns the target T1, HsPRC2_4. Briefly: Radioactive filter-binding histone methyltransferase assay, intact HsPRC2_4, oligonucleosome substrate. In kind it is biochemical.
Description: as §1

[3] abbreviates: oligonucleosome substrate, n=2, mean±s.d.

T1 sequence (Q15910 whole entry): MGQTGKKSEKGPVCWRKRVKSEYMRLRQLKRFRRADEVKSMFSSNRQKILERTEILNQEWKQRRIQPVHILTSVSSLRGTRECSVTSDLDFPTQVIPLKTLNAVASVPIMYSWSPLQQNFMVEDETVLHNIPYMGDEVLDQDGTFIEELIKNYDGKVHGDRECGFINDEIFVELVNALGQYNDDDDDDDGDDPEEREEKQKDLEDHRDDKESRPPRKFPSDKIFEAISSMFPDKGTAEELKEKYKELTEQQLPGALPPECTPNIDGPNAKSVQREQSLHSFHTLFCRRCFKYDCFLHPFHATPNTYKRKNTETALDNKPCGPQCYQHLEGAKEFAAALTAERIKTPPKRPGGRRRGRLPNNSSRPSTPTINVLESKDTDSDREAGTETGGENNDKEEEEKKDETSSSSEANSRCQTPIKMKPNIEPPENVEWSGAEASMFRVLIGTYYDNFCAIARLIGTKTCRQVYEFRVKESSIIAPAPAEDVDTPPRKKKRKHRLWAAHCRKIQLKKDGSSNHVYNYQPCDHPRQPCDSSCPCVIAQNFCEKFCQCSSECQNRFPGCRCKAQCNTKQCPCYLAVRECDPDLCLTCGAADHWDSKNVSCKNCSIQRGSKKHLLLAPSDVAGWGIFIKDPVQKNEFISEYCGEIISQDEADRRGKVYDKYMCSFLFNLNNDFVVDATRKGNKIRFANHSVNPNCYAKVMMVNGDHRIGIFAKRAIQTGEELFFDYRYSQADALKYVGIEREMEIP
T1 sequence (O75530 whole entry partner): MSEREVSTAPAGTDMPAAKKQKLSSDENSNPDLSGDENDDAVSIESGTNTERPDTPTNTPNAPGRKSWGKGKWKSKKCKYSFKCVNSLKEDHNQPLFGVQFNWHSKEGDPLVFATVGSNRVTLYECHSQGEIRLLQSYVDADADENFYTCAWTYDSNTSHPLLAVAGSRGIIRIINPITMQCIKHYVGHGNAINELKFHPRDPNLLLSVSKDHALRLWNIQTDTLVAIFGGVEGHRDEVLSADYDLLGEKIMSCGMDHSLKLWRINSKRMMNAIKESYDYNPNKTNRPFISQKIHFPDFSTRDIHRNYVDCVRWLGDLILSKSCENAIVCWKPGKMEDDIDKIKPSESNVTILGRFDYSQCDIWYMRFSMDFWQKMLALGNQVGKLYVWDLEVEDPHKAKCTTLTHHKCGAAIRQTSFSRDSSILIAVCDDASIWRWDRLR
T1 sequence (Q15022 whole entry partner): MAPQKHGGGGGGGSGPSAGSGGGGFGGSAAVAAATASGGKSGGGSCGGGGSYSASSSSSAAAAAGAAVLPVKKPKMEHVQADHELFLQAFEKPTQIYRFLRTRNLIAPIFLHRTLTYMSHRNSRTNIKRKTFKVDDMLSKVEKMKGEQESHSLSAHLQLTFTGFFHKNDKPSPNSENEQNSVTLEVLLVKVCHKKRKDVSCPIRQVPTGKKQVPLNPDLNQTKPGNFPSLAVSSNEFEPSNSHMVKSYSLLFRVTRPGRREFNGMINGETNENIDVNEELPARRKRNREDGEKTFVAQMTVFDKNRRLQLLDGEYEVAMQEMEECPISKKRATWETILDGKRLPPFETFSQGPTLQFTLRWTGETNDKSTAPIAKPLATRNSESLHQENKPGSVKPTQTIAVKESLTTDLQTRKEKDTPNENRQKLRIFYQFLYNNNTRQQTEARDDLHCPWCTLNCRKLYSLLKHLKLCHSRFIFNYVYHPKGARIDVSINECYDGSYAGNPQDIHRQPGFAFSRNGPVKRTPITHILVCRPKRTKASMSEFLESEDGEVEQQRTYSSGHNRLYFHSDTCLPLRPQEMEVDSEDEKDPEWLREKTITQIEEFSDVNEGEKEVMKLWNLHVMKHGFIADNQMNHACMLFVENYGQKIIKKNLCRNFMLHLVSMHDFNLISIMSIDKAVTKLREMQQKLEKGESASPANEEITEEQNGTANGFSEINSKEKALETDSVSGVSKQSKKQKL
T1 sequence (Q09028 whole entry partner): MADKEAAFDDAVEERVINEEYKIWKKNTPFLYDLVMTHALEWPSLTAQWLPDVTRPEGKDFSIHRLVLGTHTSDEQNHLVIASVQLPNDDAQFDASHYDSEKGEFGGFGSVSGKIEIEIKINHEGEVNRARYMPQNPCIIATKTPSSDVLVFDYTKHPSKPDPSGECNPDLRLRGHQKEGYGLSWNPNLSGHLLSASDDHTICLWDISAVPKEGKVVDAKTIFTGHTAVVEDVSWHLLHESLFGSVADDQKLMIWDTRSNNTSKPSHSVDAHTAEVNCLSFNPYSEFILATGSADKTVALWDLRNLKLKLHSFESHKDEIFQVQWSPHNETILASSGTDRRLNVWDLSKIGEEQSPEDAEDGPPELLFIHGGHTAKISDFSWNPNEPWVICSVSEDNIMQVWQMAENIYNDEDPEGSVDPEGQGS
T3 sequence (Q15910 whole entry Y111L): as the sequence (Q15910 whole entry) above, with Y111L counted along it
T3 sequence (O75530 whole entry partner): as the sequence (O75530 whole entry partner) above
T3 sequence (Q15022 whole entry partner): as the sequence (Q15022 whole entry partner) above
T3 sequence (Q09028 whole entry partner): as the sequence (Q09028 whole entry partner) above
T2 sequence (Q15910 whole entry Y641N/Y661D): as the sequence (Q15910 whole entry) above, with Y641N, Y661D counted along it
T2 sequence (O75530 whole entry partner): as the sequence (O75530 whole entry partner) above
T2 sequence (Q15022 whole entry partner): as the sequence (Q15022 whole entry partner) above
T2 sequence (Q09028 whole entry partner): as the sequence (Q09028 whole entry partner) above
T4 sequence (Q15910 whole entry Y641N): as the sequence (Q15910 whole entry) above, with Y641N counted along it
T4 sequence (O75530 whole entry partner): as the sequence (O75530 whole entry partner) above
T4 sequence (Q15022 whole entry partner): as the sequence (Q15022 whole entry partner) above
T4 sequence (Q09028 whole entry partner): as the sequence (Q09028 whole entry partner) above
Chain of Hs/AcPRC2_X (G1KPH4 entry or part of it DEL368-454, form open): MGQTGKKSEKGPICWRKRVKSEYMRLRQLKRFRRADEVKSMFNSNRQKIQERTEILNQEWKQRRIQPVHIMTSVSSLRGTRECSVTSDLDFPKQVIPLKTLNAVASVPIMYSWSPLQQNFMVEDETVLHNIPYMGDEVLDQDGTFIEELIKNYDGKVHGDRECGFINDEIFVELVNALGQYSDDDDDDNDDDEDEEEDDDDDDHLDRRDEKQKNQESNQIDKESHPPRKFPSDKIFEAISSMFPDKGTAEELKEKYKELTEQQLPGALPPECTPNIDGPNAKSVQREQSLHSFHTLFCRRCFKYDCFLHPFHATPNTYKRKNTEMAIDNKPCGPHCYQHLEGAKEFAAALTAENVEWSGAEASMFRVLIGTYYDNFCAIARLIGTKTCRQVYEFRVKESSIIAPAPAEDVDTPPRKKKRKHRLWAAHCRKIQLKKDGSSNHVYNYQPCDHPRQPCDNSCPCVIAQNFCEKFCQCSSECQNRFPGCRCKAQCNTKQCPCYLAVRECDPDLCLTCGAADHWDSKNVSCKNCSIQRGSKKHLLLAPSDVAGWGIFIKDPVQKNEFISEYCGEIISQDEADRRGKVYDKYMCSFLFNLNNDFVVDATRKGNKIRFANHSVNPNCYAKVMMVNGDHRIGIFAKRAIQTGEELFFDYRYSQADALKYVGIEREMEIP
Chain of Hs/AcPRC2_X (Q15022 545-726 S583D, form open, further chain): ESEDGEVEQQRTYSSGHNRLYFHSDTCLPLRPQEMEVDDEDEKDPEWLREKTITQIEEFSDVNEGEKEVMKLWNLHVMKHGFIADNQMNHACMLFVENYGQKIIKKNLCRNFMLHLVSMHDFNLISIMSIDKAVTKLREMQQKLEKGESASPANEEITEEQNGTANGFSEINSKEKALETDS
Chain of Hs/AcPRC2_X (O75530 81-441, stated change not applied, form open, further chain): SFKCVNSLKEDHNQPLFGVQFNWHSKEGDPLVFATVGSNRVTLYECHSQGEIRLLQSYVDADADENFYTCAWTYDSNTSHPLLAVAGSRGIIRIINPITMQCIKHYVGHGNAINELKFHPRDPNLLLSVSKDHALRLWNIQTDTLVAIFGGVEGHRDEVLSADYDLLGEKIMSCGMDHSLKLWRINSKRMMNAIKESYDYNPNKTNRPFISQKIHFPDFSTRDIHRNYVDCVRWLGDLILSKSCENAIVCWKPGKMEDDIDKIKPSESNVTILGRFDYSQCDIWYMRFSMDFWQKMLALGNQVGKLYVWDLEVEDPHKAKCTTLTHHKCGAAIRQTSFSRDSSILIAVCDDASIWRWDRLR
Description for Hs/AcPRC2_X: Recombinant PRC2 was combined with methyl-acceptor substrate in 100 mM Tris pH 8.5, 0.01% Tween-20 and 4 mM DTT. In all, 44 μl was added to a microtiter plate containing 1 μl of 100% DMSO or test compound. SAM was prepared by combining ^3H-labelled SAM with unlabelled SAM in assay buffer, such that the specific activity was 0.4 μCi μl^−1. The reaction was initiated by adding 5 μl of SAM to the microtiter plate. Following incubation at room temperature, the reaction was stopped with the addition of 100 μl of 20% TCA. The tritiated-methyl-acceptor product was captured using a 96-well filter plate (MSIPN4B50, Millipore) and washed five times with phosphate-buffered saline buffer. Scintillation fluid (50 μl) was added to the dried filter plate and counted in a liquid scintillation counter. In assays where several different constructs were compared, we first established linearity of ^3H-labelled SAM incorporation over a 120-min period and then 30 min reactions using 7.5 nM of PRC2 and its variants with 3 μM of SAM and specific concentrations of various substrates, as described below, were performed in duplicates. […] The total counts for three independent experiments were plotted as mean±standard deviation. […] Ki values were determined by fitting background corrected counts to the Morrison equation for competitive tight binding inhibition using SAM Km values for each individual enzyme[49] […]

On to `CC[C@H](C)n1cc(C)c2c(C(=O)NCc3c(C)cc(C)[nH]c3=O)cc(-c3ccc(N4CCNCC4)nc3)cc21` [GSK126], for which, on PRC2, the “Ki on activation of PRC2 by H3K27Me3 mark” value is given as “lower” and the “Residence time on activation of PRC2 by H3K27Me3 mark” value is “increased”.
Take `C[S+](CC[C@H](N)C(=O)[O-])C[C@H]1O[C@@H](n2cnc3c(N)ncnc32)[C@H](O)[C@@H]1O` (stereo partly drawn) [SAM, S-adenosyl-L-methionine, reference compound]: the Km (as a rule, the substrate concentration at which the rate is half of its maximum) at HsPRC2_4 [1] (intact HsPRC2_4 complex, read-out: Km, SAM) turned out to be 1.5 µM.
Regarding `CCc1cc(C)[nH]c(=O)c1CN1CCc2c(Cl)cc(OC3CCN(C(=O)C(C)O)CC3)c(Cl)c2C1=O` (stereo not drawn) [inhibitor 1], the Biochemical inhibition result on HsPRC2_4 (Y641N/Y661D) (Y641N/Y661D HsPRC2_4) and at HsPRC2_4 (Y111L) (Y111L HsPRC2_4) was “refractory” in each case. Further, the Ki (usually the dissociation constant of the complex between target and ligand, obtained from inhibition or displacement) at HsPRC2_4 (Y641N/Y661D) (setting [3]) amounted to 204 ± 16 nM; on HsPRC2_4 (Y111L) (setting [3]), 116.4 ± 0.7 nM; at HsPRC2_4 (Y641N) (setting [3]), 4.56 ± 0.16 nM; on Hs/AcPRC2_X it was 3.1 ± 0.11 nM; on HsPRC2_4 [1] (in the presence of the activator peptide H3K27Me3 (21-44)), 0.65 nM; at HsPRC2_4 [1] (no activator), 0.89 nM. Besides, the Ki on HsPRC2_4 [2] (setting [3]) came to 1.63 ± 0.13 nM. Besides, at HsPRC2_4 (Y641N) (Y641N HsPRC2_4), the Sensitivity to inhibitor result is recorded as “sensitive”. The “Inhibition profile, basal versus stimulated state” value on HsPRC2_4 [1] (basal and stimulated states of HsPRC2_4) is listed as “almost identical”. Further, on HsPRC2_4 [2] (HsPRC2_4, linear relationship of IC50 with (SAM)/Km, two independent experiments), the “Mode of inhibition (IC50 as a function of (SAM)/Km)” value was “SAM-competitive”.
